{"source": "patent US20020137929A1", "about": "“1 - (3-heterocyclylphenyl) isothiourea, -isourea, -guanidine and -amidine herbicidal agents” (Intellectual Property Department, BASF Aktiengesellschaft, priority 1998, published 2002)", "key": {"ABUTH (Velvetleaf) [1]": {"system": "ABUTH (Velvetleaf)", "assay": "Postemergence herbicidal evaluation", "format": "in vivo, Abutilon theophrasti", "method_in_brief": "(§1)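 Scores (0–9) reflect plant stand, vigor, malformation, size, chlorosis and general appearance relative to control, read 4 to 5 weeks after treatment and averaged where tests were repeated. Application: about 0.0156–0.500 kg/ha sprayed at 40 psi onto two-week seedlings.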"}, "[2]": {"system": "CHEAL (Lambsquarters, Common)", "assay": "Postemergence herbicidal evaluation", "format": "in vivo, Chenopodium album", "method_in_brief": "as §1"}, "[3]": {"system": "IPOHE (Morningglory, Ivyleaf)", "assay": "Postemergence herbicidal evaluation", "format": "in vivo, Ipomoea hederacea", "method_in_brief": "as §1"}, "ECHCG (Barnyardgrass) [4]": {"system": "ECHCG (Barnyardgrass)", "assay": "Postemergence herbicidal evaluation", "format": "in vivo, Echinochloa crus-galli", "method_in_brief": "as §1"}, "SETVI (Foxtail, Green)": {"system": "SETVI (Foxtail, Green)", "assay": "Postemergence herbicidal evaluation", "format": "in vivo, Setaria viridis", "method_in_brief": "as §1"}, "ORYSAT (Rice, Tebonnet)": {"system": "ORYSAT (Rice, Tebonnet)", "assay": "Postemergence herbicidal evaluation", "format": "in vivo, Oryza sativa, (L.) Tebonnet", "method_in_brief": "as §1"}, "ZEAMX (Corn, Field) [5]": {"system": "ZEAMX (Corn, Field)", "assay": "Postemergence herbicidal evaluation", "format": "in vivo, Zea mays", "method_in_brief": "as §1"}, "ABUTH (Velvetleaf) [6]": {"system": "ABUTH (Velvetleaf)", "assay": "Preemergence herbicidal evaluation", "format": "in vivo, Abutilon theophrasti", "settings": "rated 4-5 weeks after treatment", "method_in_brief": "(§2)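 Steps: mix seeds into potting soil; plant atop ~1 inch soil; spray compound in aqueous acetone (~0.0156-0.500 kg/ha equivalent); maintain in greenhouse with watering; rate visually 0-9 versus control at 4-5 weeks.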"}, "CASOB (Sicklepod)": {"system": "CASOB (Sicklepod)", "assay": "Preemergence herbicidal evaluation", "format": "in vivo, Cassia obtusifolia", "settings": "rated 4-5 weeks after treatment", "method_in_brief": "as §2"}, "[7]": {"system": "CHEAL (Lambsquarters, Common)", "assay": "Preemergence herbicidal evaluation", "format": "in vivo, Chenopodium album", "settings": "rated 4-5 weeks after treatment", "method_in_brief": "as §2"}, "[8]": {"system": "IPOHE (Morningglory, Ivyleaf)", "assay": "Preemergence herbicidal evaluation", "format": "in vivo, Ipomoea hederacea", "settings": "rated 4-5 weeks after treatment", "method_in_brief": "as §2"}, "ECHCG (Barnyardgrass) [9]": {"system": "ECHCG (Barnyardgrass)", "assay": "Preemergence herbicidal evaluation", "format": "in vivo, Echinochloa crus-galli", "settings": "rated 4-5 weeks after treatment", "method_in_brief": "as §2"}, "[10]": {"system": "GLXMAW (Soybean, Williams)", "assay": "Preemergence herbicidal evaluation", "format": "in vivo, Glycine max, (L.) Merr. cv Williams", "settings": "rated 4-5 weeks after treatment", "method_in_brief": "as §2"}, "[11]": {"system": "TRZAWR (Wheat, Winter, cv Riband)", "assay": "Preemergence herbicidal evaluation", "format": "in vivo, Triticum aestivum", "settings": "rated 4-5 weeks after treatment", "method_in_brief": "as §2"}, "ZEAMX (Corn, Field) [12]": {"system": "ZEAMX (Corn, Field)", "assay": "Preemergence herbicidal evaluation", "format": "in vivo, Zea mays", "settings": "rated 4-5 weeks after treatment", "method_in_brief": "as §2"}, "CYPIR (Rice Flatsedge)": {"system": "CYPIR (Rice Flatsedge)", "assay": "Postemergence weed control under flooded paddy conditions", "format": "in vivo, Cyperus iria", "settings": "postemergence weeds, 3-4 weeks after treatment", "method_in_brief": "(§3)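 Injury ratings (0–9 scale covering stand, vigor, malformation, size, chlorosis and overall appearance versus control) were made three to four weeks after treatment. Test material, about 0.0313 to 0.500 kg/ha a.i. in 50/50 v/v aqueous/acetone, was added to flood water 1.5 to 3 cm deep over 3 to 5 cm weeds and 1.5 to 2.5 leaf rice.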"}, "CYPSE (Flatsedge)": {"system": "CYPSE (Flatsedge)", "assay": "Postemergence weed control under flooded paddy conditions", "format": "in vivo, Cyperus serotinus", "settings": "postemergence weeds, 3-4 weeks after treatment", "method_in_brief": "as §3"}}}
{"smiles": "CCOC(=O)CN1C(=O)C[S+]([O-])/C1=N/c1cc(-n2c(=O)cc(C(F)(F)F)n(C)c2=O)c(F)cc1Cl", "note": "(centres unmarked) [Compound 45, 2-{{2-Chloro-5-[3,6-dihydro-3-methyl-2,6-dioxo-4-(trifluoromethyl)-1(2H)-pyrimidinyl]-4-fluoro-phenyl}imino}-4-oxo-3-thiazolidineacetic acid, ethyl ester, 1-oxide]", "values": [{"measurement": "Postemergence herbicidal rating ABUTH", "setting": "ABUTH (Velvetleaf) [1]; Rate 0.0156 kg/ha", "value": 9.0}, {"measurement": "Postemergence herbicidal rating ABUTH", "setting": "ABUTH (Velvetleaf) [1]; Rate 0.0313 kg/ha", "value": 9.0}, {"measurement": "Postemergence herbicidal rating ABUTH", "setting": "ABUTH (Velvetleaf) [1]; Rate 0.0625 kg/ha", "value": 9.0}, {"measurement": "Postemergence herbicidal rating CHEAL", "setting": "[2]; Rate 0.0156 kg/ha", "value": 0.0}, {"measurement": "Postemergence herbicidal rating CHEAL", "setting": "[2]; Rate 0.0313 kg/ha", "value": 5.0}, {"measurement": "Postemergence herbicidal rating CHEAL", "setting": "[2]; Rate 0.0625 kg/ha", "value": 9.0}, {"measurement": "Postemergence herbicidal rating IPOHE", "setting": "[3]; Rate 0.0156 kg/ha", "value": 9.0}, {"measurement": "Postemergence herbicidal rating IPOHE", "setting": "[3]; Rate 0.0313 kg/ha", "value": 9.0}, {"measurement": "Postemergence herbicidal rating IPOHE", "setting": "[3]; Rate 0.0625 kg/ha", "value": 9.0}, {"measurement": "Postemergence herbicidal rating ECHCG", "setting": "ECHCG (Barnyardgrass) [4]; Rate 0.0156 kg/ha", "value": 0.0}, {"measurement": "Postemergence herbicidal rating ECHCG", "setting": "ECHCG (Barnyardgrass) [4]; Rate 0.0313 kg/ha", "value": 0.0}, {"measurement": "Postemergence herbicidal rating ECHCG", "setting": "ECHCG (Barnyardgrass) [4]; Rate 0.0625 kg/ha", "value": 0.0}, {"measurement": "Postemergence herbicidal rating SETVI", "setting": "SETVI (Foxtail, Green); Rate 0.0156 kg/ha", "value": 0.0}, {"measurement": "Postemergence herbicidal rating SETVI", "setting": "SETVI (Foxtail, Green); Rate 0.0313 kg/ha", "value": 0.0}, {"measurement": "Postemergence herbicidal rating SETVI", "setting": "SETVI (Foxtail, Green); Rate 0.0625 kg/ha", "value": 2.0}, {"measurement": "Postemergence herbicidal rating ORYSAT", "setting": "ORYSAT (Rice, Tebonnet); Rate 0.0156 kg/ha", "value": 1.5}, {"measurement": "Postemergence herbicidal rating ORYSAT", "setting": "ORYSAT (Rice, Tebonnet); Rate 0.0313 kg/ha", "value": 1.5}, {"measurement": "Postemergence herbicidal rating ORYSAT", "setting": "ORYSAT (Rice, Tebonnet); Rate 0.0625 kg/ha", "value": 2.0}, {"measurement": "Postemergence herbicidal rating ZEAMX", "setting": "ZEAMX (Corn, Field) [5]; Rate 0.0156 kg/ha", "value": 4.5}, {"measurement": "Postemergence herbicidal rating ZEAMX", "setting": "ZEAMX (Corn, Field) [5]; Rate 0.0313 kg/ha", "value": 5.0}, {"measurement": "Postemergence herbicidal rating ZEAMX", "setting": "ZEAMX (Corn, Field) [5]; Rate 0.0625 kg/ha", "value": 5.5}, {"measurement": "Preemergence herbicidal rating ABUTH", "setting": "ABUTH (Velvetleaf) [6]; rate 0.0156 kg/ha", "value": 0.0}, {"measurement": "Preemergence herbicidal rating ABUTH", "setting": "ABUTH (Velvetleaf) [6]; rate 0.0313 kg/ha", "value": 9.0}, {"measurement": "Preemergence herbicidal rating ABUTH", "setting": "ABUTH (Velvetleaf) [6]; rate 0.0625 kg/ha", "value": 9.0}, {"measurement": "Preemergence herbicidal rating ABUTH", "setting": "ABUTH (Velvetleaf) [6]; rate 0.1250 kg/ha", "value": 9.0}, {"measurement": "Preemergence herbicidal rating ABUTH", "setting": "ABUTH (Velvetleaf) [6]; rate 0.2500 kg/ha", "value": 9.0}, {"measurement": "Preemergence herbicidal rating CASOB", "setting": "CASOB (Sicklepod); rate 0.0156 kg/ha", "value": 0.0}, {"measurement": "Preemergence herbicidal rating CASOB", "setting": "CASOB (Sicklepod); rate 0.0313 kg/ha", "value": 0.0}, {"measurement": "Preemergence herbicidal rating CASOB", "setting": "CASOB (Sicklepod); rate 0.0625 kg/ha", "value": 0.0}, {"measurement": "Preemergence herbicidal rating CASOB", "setting": "CASOB (Sicklepod); rate 0.1250 kg/ha", "value": 0.0}, {"measurement": "Preemergence herbicidal rating CASOB", "setting": "CASOB (Sicklepod); rate 0.2500 kg/ha", "value": 0.0}, {"measurement": "Preemergence herbicidal rating CHEAL", "setting": "[7]; rate 0.0156 kg/ha", "value": 9.0}, {"measurement": "Preemergence herbicidal rating CHEAL", "setting": "[7]; rate 0.0313 kg/ha", "value": 9.0}, {"measurement": "Preemergence herbicidal rating CHEAL", "setting": "[7]; rate 0.0625 kg/ha", "value": 9.0}, {"measurement": "Preemergence herbicidal rating CHEAL", "setting": "[7]; rate 0.1250 kg/ha", "value": 9.0}, {"measurement": "Preemergence herbicidal rating CHEAL", "setting": "[7]; rate 0.2500 kg/ha", "value": 9.0}, {"measurement": "Preemergence herbicidal rating IPOHE", "setting": "[8]; rate 0.0156 kg/ha", "value": 0.0}, {"measurement": "Preemergence herbicidal rating IPOHE", "setting": "[8]; rate 0.0313 kg/ha", "value": 0.0}, {"measurement": "Preemergence herbicidal rating IPOHE", "setting": "[8]; rate 0.0625 kg/ha", "value": 0.0}, {"measurement": "Preemergence herbicidal rating IPOHE", "setting": "[8]; rate 0.1250 kg/ha", "value": 0.0}, {"measurement": "Preemergence herbicidal rating IPOHE", "setting": "[8]; rate 0.2500 kg/ha", "value": 1.0}, {"measurement": "Preemergence herbicidal rating ECHCG", "setting": "ECHCG (Barnyardgrass) [9]; rate 0.0156 kg/ha", "value": 0.0}, {"measurement": "Preemergence herbicidal rating ECHCG", "setting": "ECHCG (Barnyardgrass) [9]; rate 0.0313 kg/ha", "value": 0.0}, {"measurement": "Preemergence herbicidal rating ECHCG", "setting": "ECHCG (Barnyardgrass) [9]; rate 0.0625 kg/ha", "value": 0.0}, {"measurement": "Preemergence herbicidal rating ECHCG", "setting": "ECHCG (Barnyardgrass) [9]; rate 0.1250 kg/ha", "value": 0.0}, {"measurement": "Preemergence herbicidal rating ECHCG", "setting": "ECHCG (Barnyardgrass) [9]; rate 0.2500 kg/ha", "value": 0.0}, {"measurement": "Preemergence herbicidal rating GLXMAW", "setting": "[10]; rate 0.0156 kg/ha", "value": 0.0}, {"measurement": "Preemergence herbicidal rating GLXMAW", "setting": "[10]; rate 0.0313 kg/ha", "value": 0.0}, {"measurement": "Preemergence herbicidal rating GLXMAW", "setting": "[10]; rate 0.0625 kg/ha", "value": 0.0}, {"measurement": "Preemergence herbicidal rating GLXMAW", "setting": "[10]; rate 0.1250 kg/ha", "value": 0.0}, {"measurement": "Preemergence herbicidal rating GLXMAW", "setting": "[10]; rate 0.2500 kg/ha", "value": 3.0}, {"measurement": "Preemergence herbicidal rating TRZAWR", "setting": "[11]; rate 0.0156 kg/ha", "value": 0.0}, {"measurement": "Preemergence herbicidal rating TRZAWR", "setting": "[11]; rate 0.0313 kg/ha", "value": 0.0}, {"measurement": "Preemergence herbicidal rating TRZAWR", "setting": "[11]; rate 0.0625 kg/ha", "value": 0.0}, {"measurement": "Preemergence herbicidal rating TRZAWR", "setting": "[11]; rate 0.1250 kg/ha", "value": 2.0}, {"measurement": "Preemergence herbicidal rating TRZAWR", "setting": "[11]; rate 0.2500 kg/ha", "value": 5.0}, {"measurement": "Preemergence herbicidal rating ZEAMX", "setting": "ZEAMX (Corn, Field) [12]; rate 0.0156 kg/ha", "value": 0.0}, {"measurement": "Preemergence herbicidal rating ZEAMX", "setting": "ZEAMX (Corn, Field) [12]; rate 0.0313 kg/ha", "value": 0.0}, {"measurement": "Preemergence herbicidal rating ZEAMX", "setting": "ZEAMX (Corn, Field) [12]; rate 0.0625 kg/ha", "value": 0.0}, {"measurement": "Preemergence herbicidal rating ZEAMX", "setting": "ZEAMX (Corn, Field) [12]; rate 0.1250 kg/ha", "value": 2.0}, {"measurement": "Preemergence herbicidal rating ZEAMX", "setting": "ZEAMX (Corn, Field) [12]; rate 0.2500 kg/ha", "value": 4.0}, {"measurement": "Herbicidal rating CYPIR", "setting": "CYPIR (Rice Flatsedge); rate 0.0313 kg/ha", "value": 0.0}, {"measurement": "Herbicidal rating CYPIR", "setting": "CYPIR (Rice Flatsedge); rate 0.0625 kg/ha", "value": 3.0}, {"measurement": "Herbicidal rating CYPIR", "setting": "CYPIR (Rice Flatsedge); rate 0.1250 kg/ha", "value": 7.0}, {"measurement": "Herbicidal rating CYPIR", "setting": "CYPIR (Rice Flatsedge); rate 0.2500 kg/ha", "value": 7.0}, {"measurement": "Herbicidal rating CYPSE", "setting": "CYPSE (Flatsedge); rate 0.0313 kg/ha", "value": 0.0}, {"measurement": "Herbicidal rating CYPSE", "setting": "CYPSE (Flatsedge); rate 0.0625 kg/ha", "value": 0.0}, {"measurement": "Herbicidal rating CYPSE", "setting": "CYPSE (Flatsedge); rate 0.2500 kg/ha", "value": 0.0}]}
